Values quoted from earlier work in article PMC12661886, “A phase 1/2 study of DS-1594 menin inhibitor in relapsed/refractory acute leukemias” (Journal of Hematology & Oncology, 2025).
pIC50: −log10 of the molar value.

Experiments:
[1] = system: MV4;11 cells harboring KMT2A-r with CRISPR-Cas9 induced menin mutations; design: method as in doi:10.1182/blood-2024-208887; details: menin mutations except M327
[2] = system: cell lines of KMT2A-r leukemia harboring MEN1-M327I or MEN1-T349M; design: method as in PMID 38905635
QT and QTc intervals = system: QT and QTc intervals; design: method as in Investigator Brochure; details: predicted by exposure-response analysis; ref Investigator Brochure
[3] = system: KMT2A-r and NPM1mut R/R AML; design: method as in doi:10.1182/blood-2024-194827
[4] = system: R/R KMT2A-r ALL/AML/MPAL or R/R NPM1mut AML
[5] = system: R/R NPM1mut, NUP98-r, KMT2A-r AML; design: method as in earlier work

In the case of CNc1nc(NC2CCN(Cc3ccc4c(cc(C#N)n4C[C@H](C)N4CCN(S(C)(=O)=O)CC4)c3C)CC2)c2cc(CC(F)(F)F)sc2n1 [ziftomenib], the “median DOR” value (R/R AML) is given as 6.6 months, the “responses in the dose finding phase” value (R/R AML) is given as “no significant responses were observed” and the “CR/CRh rate, R/R NPM1mut AML” value (R/R AML; 600 mg dose) is given as 35%. For the same compound, the “patients achieving CR/CRh, NPM1mut AML previously treated with venetoclax” value (R/R AML; 600 mg dose) was 5/7, the “all-grade DS” value (R/R AML; KOMET phase 1a and 1b (n = 83)) was 21% and the “grade 3 DS” value (R/R AML; KOMET phase 1a and 1b (n = 83)) was 14%. For the same compound, the CR/CRh rate (R/R AML; RP2D 600 mg/day, phase 1b) was 25% and the pIC50 [1] was 7.65.

For CCN(C(=O)c1cc(F)ccc1Oc1nncnc1N1CCC2(C1)CN([C@H](CCCN(C)CCOC)C(C)C)C2)C(C)C [bleximenib], the “efficacy in menin-mutant cell lines” value [2] is listed as “showed efficacy” and the pIC50 [1] is listed as 8.48.

For COc1cc(-c2ccc(CN[C@H]3C[C@@H](O)[C@@H](N(C)c4ncnc5sc(CC(F)(F)F)cc45)C3)cc2)nnc1OC [DS-1594a], the “plasma concentration to induce QTc interval prolongation by 10 milliseconds” value (QT and QTc intervals) is given as “around 1000 ng/mL”.

For C=C1C[C@@H]2CC[C@H]1[C@@H](C(=O)N1CCC3(CC1)CN(c1ncncc1Oc1ccc(F)cc1C(=O)N(C(C)C)C(C)C)C3)N2 [Enzomenib], the “All grade DS, patients” value [3] is listed as 10.7%, the “Grade 3 or higher DS, patients” value [3] is listed as “about 7%” and the “CR + CRh rate, KMT2A-r R/R AML” value ([3]; 200 mg or 300 mg BID) is listed as 30%. The “CR + CRh rate, NPM1mut R/R AML” value ([3]; 200 mg or 300 mg BID) was 47%, the “ORR, KMT2A-r R/R AML” value ([3]; 200 mg or 300 mg BID) was 65% and the “ORR, NPM1mut R/R AML” value ([3]; 200 mg or 300 mg BID) was 59%.

For CCN(C(=O)c1cc(F)ccc1Oc1cncnc1N1CC2(CCN(C[C@H]3CC[C@H](NS(=O)(=O)CC)CC3)CC2)C1)C(C)C [revumenib], the “grade 3 or higher QTc prolongation, patients” value [4] is listed as 14%, the “median DOR, CR + CRh” value [4] is listed as 6.4 months and the “median DOR, KMT2A-r acute leukemias with CR/CRh” value [4] is listed as “about 6 months”. For the same compound, the “median duration of response (DOR), patients with an ORR” value [4] was 4.3 months, the “CR + CRh rate” value ([4]; AUGMENT 101) was 23% and the “overall response rate (ORR)” value ([4]; AUGMENT 101) was 63%. For the same compound, the “grade 3 or higher differentiation syndrome, patients” value ([4]; AUGMENT-101) was 16%, the “overall DS rate” value ([4]; AUGMENT-101 study) was “about 28%” and the CR/CRh rate ([5]; SAVE regimen) was 48%. The “consolidated with an HSCT” value ([5]; SAVE regimen) was 39%, the “median duration of CR/CRh” value ([5]; about 9 months median follow-up) was “not achieved” and the ORR ([5]; combination with oral decitabine-cedazuridine and venetoclax) was 82%.
